Source: PubChem BioAssay AID248 (DTP/NCI, 2004)
Several values for one entry are separate records, joined by “and”; a condition that tells them apart may be missing. Equal entries are not always repeated. Toxic doses and inconclusive results are not listed. No stated cut-off is given here; in the data, active means T/C of 150% or more; inactive means T/C below 125%.

System: L1210 leukemia ip in BDF1 mice, survival T/C
Assay: NCI In Vivo Anticancer Drug Screen. Data for tumor model L1210 Leukemia (intraperitoneal) in B6D2F1 (BDF1) mice
Conditions: endpoint: mean survival time, higher = longer survival
In short: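 Each compound was tested against a transplantable tumor grown in mice. The endpoint was survival, with treated animals benchmarked against vehicle controls as a simple ratio.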

[1] = dose: 100.0 mg/kg/injection, schedule: Q01DX001 (ip), vehicle: Klucel (hydroxypropylcellulose) (HPC)
[2] = dose: 200.0 mg/kg/injection, schedule: Q01DX001 (ip), vehicle: Klucel (hydroxypropylcellulose) (HPC)
[3] = dose: 100.0 mg/kg/injection, schedule: Q04DX003 (ip), vehicle: Klucel (hydroxypropylcellulose) (HPC)
[4] = dose: 100.0 mg/kg/injection, schedule: Q04DX002 (ip), vehicle: Klucel (hydroxypropylcellulose) (HPC)
[5] = dose: 200.0 mg/kg/injection, schedule: Q04DX002 (ip), vehicle: Klucel (hydroxypropylcellulose) (HPC)
[6] = dose: 400.0 mg/kg/injection, schedule: Q04DX002 (ip), vehicle: Klucel (hydroxypropylcellulose) (HPC)
[7] = dose: 100.0 mg/kg/injection, schedule: Q01DX009 (ip), vehicle: Klucel (hydroxypropylcellulose) (HPC)
[8] = dose: 200.0 mg/kg/injection, schedule: Q01DX009 (ip), vehicle: Klucel (hydroxypropylcellulose) (HPC)
[9] = dose: 200.0 mg/kg/injection, schedule: Q04DX003 (ip), vehicle: Klucel (hydroxypropylcellulose) (HPC)
[10] = dose: 400.0 mg/kg/injection, schedule: Q01DX009 (ip), vehicle: Klucel (hydroxypropylcellulose) (HPC)
[11] = dose: 400.0 mg/kg/injection, schedule: Q04DX003 (ip), vehicle: Klucel (hydroxypropylcellulose) (HPC)
[12] = dose: 100.0 mg/kg/injection, schedule: Q01DX009 (ip), vehicle: saline with Tween-80
[13] = dose: 200.0 mg/kg/injection, schedule: Q01DX009 (ip), vehicle: saline with Tween-80
[14] = dose: 400.0 mg/kg/injection, schedule: Q01DX009 (ip), vehicle: saline with Tween-80
[15] = dose: 100.0 mg/kg/injection, schedule: Q01DX001 (ip), vehicle: carboxymethylcellulose (CMC)
[16] = dose: 200.0 mg/kg/injection, schedule: Q01DX001 (ip), vehicle: carboxymethylcellulose (CMC)
[17] = dose: 400.0 mg/kg/injection, schedule: Q01DX001 (ip), vehicle: carboxymethylcellulose (CMC)
[18] = dose: 12.5 mg/kg/injection, schedule: Q01DX009 (ip), vehicle: Klucel (hydroxypropylcellulose) (HPC)
[19] = dose: 25.0 mg/kg/injection, schedule: Q01DX009 (ip), vehicle: Klucel (hydroxypropylcellulose) (HPC)
[20] = dose: 25.0 mg/kg/injection, schedule: Q04DX002 (ip), vehicle: Klucel (hydroxypropylcellulose) (HPC)
[21] = dose: 75.0 mg/kg/injection, schedule: Q01DX001 (ip), vehicle: saline
[22] = dose: 100.0 mg/kg/injection, schedule: Q01DX001 (ip), vehicle: saline

Measured: T/C

CCOC(=O)/C=C/c1nc(N)[nH]c(=O)c1CCCCc1ccccc1
inactive: dose: 50.0 mg/kg/injection, schedule: Q01DX001 (ip), vehicle: Klucel (hydroxypropylcellulose) (HPC) 122 % of control | [1] 119 % of control | [2] 111 % of control

O=C(O)CNCc1cc(=O)[nH]c(=O)[nH]1
inactive: dose: 100.0 mg/kg/injection, schedule: Q04DX003 (ip), vehicle: saline 94 % of control | dose: 200.0 mg/kg/injection, schedule: Q04DX003 (ip), vehicle: saline 97 % of control | dose: 400.0 mg/kg/injection, schedule: Q04DX003 (ip), vehicle: saline 105 % of control

CCc1cccc[n+]1CC(=O)c1ccc(-c2ccccc2)cc1
inactive: [3] 86 % of control

CCn1cc(C(=O)O)c(=O)c2c3ccccc3ccc21
inactive: [4] 96 % of control | [5] 93 % of control | [6] 100 % of control

Cc1ccc(-n2c(=S)[nH]c3ccccc3c2=O)cc1C
inactive: [7] 90 % of control | [3] 96 % of control | [8] 90 % of control | [9] 93 % of control | [10] 92 % of control | [11] 93 % of control

CC1SC(=S)N(c2ccc(Cl)cc2)C1=O (configuration not stated)
inactive: [7] 115 % of control | [3] 98 % of control | [8] 110 % of control | [9] 106 % of control

CSc1nc(N)c(C#N)cc1C#N
inactive: [12] 88 % of control | [13] 88 % of control | [14] 88 % of control

CCN(CC)CCC(O)c1ccc2c(c1)[nH]c1ccccc12 (configuration not stated)
inactive: dose: 75.0 mg/kg/injection, schedule: Q01DX001 (ip), vehicle: carboxymethylcellulose (CMC) 97 % of control | dose: 150.0 mg/kg/injection, schedule: Q01DX001 (ip), vehicle: carboxymethylcellulose (CMC) 103 % of control

Cc1ccc(S(=O)(=O)N2CC(O)C(O)C2Cn2cnc3c(N)ncnc32)cc1 (configuration not stated)
inactive: dose: 50.0 mg/kg/injection, schedule: Q04DX002 (ip), vehicle: saline 96 % of control | dose: 100.0 mg/kg/injection, schedule: Q04DX002 (ip), vehicle: saline 102 % of control | dose: 200.0 mg/kg/injection, schedule: Q04DX002 (ip), vehicle: saline 102 % of control

CCN(CC)CCOc1ccc(C2=C(c3ccccc3)CCc3cc(OC)ccc32)cc1
inactive: [15] 90 % of control | [16] 92 % of control | [17] 90 % of control

CCOc1ccc(Cl)cc1C1N(Cc2ccccc2OC)CCCN1Cc1ccccc1OC
inactive: [15] 87 % of control | [16] 93 % of control | [17] 91 % of control

CCN(CC)CCCN=C(N)CCl
inactive: [18] 96 % of control | [19] 96 % of control | [20] 114 % of control | dose: 50.0 mg/kg/injection, schedule: Q04DX002 (ip), vehicle: Klucel (hydroxypropylcellulose) (HPC) 107 % of control | [4] 95 % of control

CN(C)S(=O)(=O)Nc1cc(Cl)c(NS(=O)(=O)N(C)C)cc1Cl
inactive: [7] 94 % of control | [3] 91 % of control | [8] 96 % of control | [9] 93 % of control | [10] 102 % of control | [11] 98 % of control

O=[N+]([O-])/C=C/c1cccc2ccccc12
inactive: [21] 94 % of control | dose: 150.0 mg/kg/injection, schedule: Q01DX001 (ip), vehicle: saline 94 % of control | dose: 300.0 mg/kg/injection, schedule: Q01DX001 (ip), vehicle: saline 101 % of control

CC(=O)c1ccc(OCC(=O)O)cc1
inactive: [1] 97 % of control | [2] 97 % of control | dose: 400.0 mg/kg/injection, schedule: Q01DX001 (ip), vehicle: Klucel (hydroxypropylcellulose) (HPC) 101 % of control

CC1(C)N=C(N)N=C(N)N1c1ccc(OCC(=O)N2CCOCC2)cc1
inactive: dose: 12.5 mg/kg/injection, schedule: Q01DX009 (ip), vehicle: saline 106 % of control | dose: 25.0 mg/kg/injection, schedule: Q01DX009 (ip), vehicle: saline 102 % of control | dose: 50.0 mg/kg/injection, schedule: Q01DX009 (ip), vehicle: saline 95 % of control | dose: 100.0 mg/kg/injection, schedule: Q01DX009 (ip), vehicle: saline 96 % of control

OC(C1CCCCC1)(C1CCCCC1)C1CCCCC1
inactive: [12] 101 % of control | [3] 91 % of control | [13] 96 % of control | [9] 92 % of control | [14] 96 % of control | [11] 96 % of control

CCCCCCCCCCCCCCCCCCNC(=O)N(c1ccccc1)C1CCCCC1
inactive: [4] 101 % of control | [5] 93 % of control | [6] 87 % of control

O=CC(C=O)[N+](=O)[O-]
inactive: [7] 100 % of control | [4] 97 % of control | [3] 97 % of control | [8] 105 % of control | [5] 94 % of control | [9] 102 % of control | [10] 108 % of control | [6] 105 % of control | [11] 102 % of control

NC(Cc1ccccc1Cl)C(=O)O (configuration not stated)
inactive: dose: 50.0 mg/kg/injection, schedule: Q01DX009 (ip), vehicle: Klucel (hydroxypropylcellulose) (HPC) 102 % of control | dose: 75.0 mg/kg/injection, schedule: Q01DX001 (ip), vehicle: Klucel (hydroxypropylcellulose) (HPC) 86 % of control | [7] 102 % of control | dose: 150.0 mg/kg/injection, schedule: Q01DX001 (ip), vehicle: Klucel (hydroxypropylcellulose) (HPC) 99 % of control | [8] 102 % of control | dose: 300.0 mg/kg/injection, schedule: Q01DX001 (ip), vehicle: Klucel (hydroxypropylcellulose) (HPC) 96 % of control

Nc1ncnc2oc(-c3ccccc3)c(-c3ccccc3)c12
inactive: dose: 50.0 mg/kg/injection, schedule: Q04DX002 (ip), vehicle: saline with Tween-80 91 % of control | dose: 100.0 mg/kg/injection, schedule: Q04DX002 (ip), vehicle: saline with Tween-80 88 % of control

NCCCN=C=NCc1ccccc1
inactive: [22] 100 % of control

CC(=O)C(CCS(C)(=O)=O)(CCS(C)(=O)=O)c1ccccc1
inactive: [3] 112 % of control | [9] 108 % of control | [11] 100 % of control

NC(CSS(=O)(=O)O)=NCc1ccsc1
inactive: dose: 6.25 mg/kg/injection, schedule: Q01DX009 (ip), vehicle: Klucel (hydroxypropylcellulose) (HPC) 96 % of control | [18] 104 % of control | dose: 12.5 mg/kg/injection, schedule: Q04DX002 (ip), vehicle: Klucel (hydroxypropylcellulose) (HPC) 100 % of control | [19] 101 % of control | [20] 95 % of control

O=C(O)Cc1ccc(N=Nc2c(O)c(C(=O)O)cc3ccccc23)cc1
inactive: [7] 96 % of control | [3] 93 % of control | [8] 105 % of control | [9] 100 % of control | [10] 100 % of control | [11] 103 % of control

C/C=C/CC1(C(C)C)C(=O)NC(=S)NC1=O
inactive: [21] 93 % of control

c1ccc(C(C2CCCCC2)(C2CCCCC2)C(c2ccccc2)(C2CCCCC2)C2CCCCC2)cc1
inactive: dose: 25.0 mg/kg/injection, schedule: Q04DX003 (ip), vehicle: Klucel (hydroxypropylcellulose) (HPC) 105 % of control | dose: 50.0 mg/kg/injection, schedule: Q04DX003 (ip), vehicle: Klucel (hydroxypropylcellulose) (HPC) 111 % of control | [3] 92 % of control and 93 % of control | [9] 93 % of control | [11] 87 % of control

Cc1ccc(N=C2CCCCC2Nc2ccc(C)cc2)cc1.[Cl][Zn][Cl] (configuration not stated)
inactive: [22] 98 % of control | dose: 200.0 mg/kg/injection, schedule: Q01DX001 (ip), vehicle: saline 101 % of control | dose: 400.0 mg/kg/injection, schedule: Q01DX001 (ip), vehicle: saline 104 % of control

Nc1nc(=S)[nH][nH]1
inactive: dose: 50.0 mg/kg/injection, schedule: Q01DX009 (ip), vehicle: saline with Tween-80 105 % of control | dose: 100.0 mg/kg/injection, schedule: Q01DX001 (ip), vehicle: saline with Tween-80 104 % of control | [12] 117 % of control | dose: 100.0 mg/kg/injection, schedule: Q04DX003 (ip), vehicle: saline with Tween-80 104 % of control | dose: 200.0 mg/kg/injection, schedule: Q01DX001 (ip), vehicle: saline with Tween-80 105 % of control | [13] 101 % of control | dose: 200.0 mg/kg/injection, schedule: Q04DX003 (ip), vehicle: saline with Tween-80 98 % of control
